These results are taken from patent US20240190891A1, “PYRIDO OXAZINE AMINO DERIVATIVES AS ALK5 INHIBITORS” (CHIESI FARMACEUTICI S.P.A., priority 2020, published 2024).

The target in the test is T1, human ALK5 (Homo sapiens, UniProt P36897).
T1 construct: human ALK5 (recombinant TGF β1 N-term GST-tagged, 80-end); GST (N); purchased
T1 sequence (P36897 80-503 limits assumed): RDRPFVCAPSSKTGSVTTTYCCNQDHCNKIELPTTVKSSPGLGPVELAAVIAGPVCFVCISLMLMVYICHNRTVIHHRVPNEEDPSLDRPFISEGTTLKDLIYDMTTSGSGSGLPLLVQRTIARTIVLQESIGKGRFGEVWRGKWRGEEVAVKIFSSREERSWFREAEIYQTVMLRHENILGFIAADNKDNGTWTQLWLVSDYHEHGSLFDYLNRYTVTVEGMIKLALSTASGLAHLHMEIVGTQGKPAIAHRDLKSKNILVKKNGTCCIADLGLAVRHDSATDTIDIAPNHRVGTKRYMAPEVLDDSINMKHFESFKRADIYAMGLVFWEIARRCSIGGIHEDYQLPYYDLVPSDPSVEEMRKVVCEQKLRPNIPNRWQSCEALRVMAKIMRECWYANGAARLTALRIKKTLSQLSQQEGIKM
The test is described as follows: ADP-GLO Kinases assay, inhibitory activity on ALK5. In kind it is biochemical. As to conditions: Table 10; purified recombinant human ALK5 2.6 nM, ADP-Glo, 25° C., 150 min incubation. As for the experimental part: The enzymatic activity of compounds of the present invention was monitored measuring the formation of ADP using the ADP-GLO Kinases assay. Following the incubation of the purified enzyme, a substrate and ATP, the produced ADP was converted into ATP, which in turn was converted into light by Ultra-Glo Luciferase. The luminescent signal positively correlated with ADP amount and kinase activity. Briefly, the kinase reaction was performed by incubating 2.6 nM of the purified, commercially available human ALK5 (recombinant TGF β1 N-term GST-tagged, 80-end), a final concentration of TGFβ1 peptide 94.5 μM (Promega, T36-58) and ultra-pure ATP (Promega V915B). The ATP concentration was set at the Km value (concentration of substrate which permits the enzyme to achieve half maximal velocity (Vmax)) of ALK5 (5 μM). All reactions/incubations were performed at 25° C. Compound and ALK5 kinase were mixed and incubated for 15 mins. Reactions were initiated by addition of ATP at a final concentration in the assay of 0.83 μM. After an incubation of 150 min, the reaction was stopped, and ADP production detected with ADP-Glo kit according to manufacturer's indications. The assay was performed in 384-well format and was validated using a selection of reference compounds that was tested in 11 point concentration-response curve.
Compounds of the examples C1, C2 and C3 were tested in the same in vitro assay described above.
Background: In ADP-Glo the light output rises with the ADP produced.
As usually defined, the IC50 is the concentration that inhibits the measured activity by half. On to `Fc1ccc(Cl)cc1-c1cc(Nc2ccncc2)c2c(n1)NCCO2` [Example 1, N-[6-(5-chloro-2-fluorophenyl)-2H,3H,4H-pyrido[3,2-b][1,4]oxazin-8-yl]-pyridine-4-amine], for which the IC50 was less than 1 nM.

With `CNC(=O)c1cnccc1Nc1cc(-c2cc(Cl)ccc2F)nc2c1OCCN2` [Example 2, 4-{[6-(5-chloro-2-fluorophenyl)-2H,3H,4H-pyrido[3,2-b][1,4]oxazin-8-yl]amino}-N-methylpyridine-3-carboxamide], the IC50 was less than 1 nM.

`Nc1cc(Nc2cc(-c3cc(Cl)ccc3F)nc3c2OCCN3)ccn1` [Example 3, N4-[6-(5-chloro-2-fluorophenyl)-2H,3H,4H-pyrido[3,2-b][1,4]oxazin-8-yl]pyridine-2,4-diamine]: the IC50 is 1 to 5 nM.

With `Cc1csc(-c2cc(Nc3ccncc3)c3c(n2)NCCO3)n1` [Example 4, N-[6-(4-methyl-1,3-thiazol-2-yl)-2H,3H,4H-pyrido[3,2-b][1,4]oxazin-8-yl]pyridin-4-amine], the IC50 fell in the range of 5 to 10 nM.

With `Cc1cccc(-c2cc(Nc3ccncc3)c3c(n2)NCCO3)n1` [Example 5, N-[6-(6-methylpyridin-2-yl)-2H,3H,4H-pyrido[3,2-b][1,4]oxazin-8-yl]pyridin-4-amine], the IC50 lay within 5 to 10 nM.

As to `CNC(=O)c1cc(Nc2cc(-c3cc(Cl)ccc3F)nc3c2OCCN3)ccn1` [Example 6, 4-{[6-(5-chloro-2-fluorophenyl)-2H,3H,4H-pyrido[3,2-b][1,4]oxazin-8-yl]amino}-N-methylpyridine-2-carboxamide], the IC50 was 5 to 10 nM.

For the molecule `Nc1cnccc1Nc1cc(-c2cc(Cl)ccc2F)nc2c1OCCN2` [Example 7, N4-[6-(5-chloro-2-fluorophenyl)-2H,3H,4H-pyrido[3,2-b][1,4]oxazin-8-yl]pyridine-3,4-diamine], the IC50 fell in the range of 1 to 5 nM.

On to `Cc1ccc(F)c(-c2cc(Nc3ccncc3)c3c(n2)NCCO3)c1` [Example 8, N-[6-(2-fluoro-5-methylphenyl)-2H,3H,4H-pyrido[3,2-b][1,4]oxazin-8-yl]pyridin-4-amine], for which the concentration for half-maximal inhibition (IC50) is less than 1 nM.

For `O=C(NCCN1CCOCC1)c1cnccc1Nc1cc(-c2cc(Cl)ccc2F)nc2c1OCCN2` [Example 9, 4-{[6-(5-chloro-2-fluorophenyl)-2H,3H,4H-pyrido[3,2-b][1,4]oxazin-8-yl]amino}-N-[2-(morpholin-4-yl)ethyl]pyridine-3-carboxamide], the 50% inhibitory concentration (IC50) is 1 to 5 nM.

On to `CN(C)CCNC(=O)c1cnccc1Nc1cc(-c2cc(Cl)ccc2F)nc2c1OCCN2` [Example 10, 4-{[6-(5-chloro-2-fluorophenyl)-2H,3H,4H-pyrido[3,2-b][1,4]oxazin-8-yl]amino}-N-[2-(dimethylamino)ethyl]pyridine-3-carboxamide], for which the IC50 was less than 1 nM.

For the molecule `Fc1ccccc1-c1cc(Nc2ccncc2)c2c(n1)NCCO2` [Example 11, N-[6-(2-fluorophenyl)-2H,3H,4H-pyrido[3,2-b][1,4]oxazin-8-yl]pyridin-4-amine], the half-inhibitory concentration (IC50) was 1 to 5 nM.

For the molecule `O=C(NCCN1CCNCC1)c1cnccc1Nc1cc(-c2cc(Cl)ccc2F)nc2c1OCCN2` [Example 12, 4-{[6-(5-chloro-2-fluorophenyl)-2H,3H,4H-pyrido[3,2-b][1,4]oxazin-8-yl]amino}-N-[2-(piperazin-1-yl)ethyl]pyridine-3-carboxamide], the IC50 is less than 1 nM.

Turning to `Clc1cccc(-c2cc(Nc3ccncc3)c3c(n2)NCCO3)n1` [Example 13, N-[6-(6-chloropyridin-2-yl)-2H,3H,4H-pyrido[3,2-b][1,4]oxazin-8-yl]pyridin-4-amine], the concentration for half-maximal inhibition (IC50) was in the range of 1 to 5 nM.

Regarding `Fc1ccc(F)c(-c2cc(Nc3ccncc3)c3c(n2)NCCO3)c1` [Example 14, N-[6-(2,5-difluorophenyl)-2H,3H,4H-pyrido[3,2-b][1,4]oxazin-8-yl]pyridin-4-amine], the IC50 was in the range of 1 to 5 nM.

For the molecule `Clc1cccc(-c2cc(Nc3ccncc3)c3c(n2)NCCO3)c1` [Example 15, N-[6-(3-chlorophenyl)-2H,3H,4H-pyrido[3,2-b][1,4]oxazin-8-yl]pyridin-4-amine], the IC50 lay in the range of 1 to 5 nM.
